The experiment deals with T1, human vanilloid-1 (hVR1) (Homo sapiens, UniProt Q8NER1).
T1 construct: expressed in transfected cells; host or cells: HEK293 Tet-on (hVR1-HEK293), doxycycline-induced
The experiment can be described thus: Calcium influx of vanilloid receptor in hVR1-HEK293 cells (capsaicin-induced, Fluo-3/AM). The following applies: 1 μM capsaicin-induced intracellular calcium influx, read-out: Inhibitory Activity IC50. The format is cell-based. The procedure: Experiments for calcium influx were performed to measure the activity of the compounds as antagonists.
The cell strain hVR1-HEK293 is the human embryonic kidney (HEK) 293 Tet-on cell transfected with a human vanilloid-1 gene (pTRE2hyg-hVR1, 7.8 kb), which is capable of controlling the expression of VR1 according to the administration of deoxycycline, a tetracycline derivative analog. In a medium supplemented with deoxycycline two days before calcium influx experiments, the cell strain was cultured to induce the expression of VR1. After being grown to a confluency of about 80% in T75 flasks, hVR1-HEK293 was detached from the flask using trypsin. Cells harvested by centrifugation were suspended in a medium supplemented with 1 μg/mL of deoxycycline and diluted to a density of 2-4×10^5 cells/mL, after which a 100 μL aliquot of the cell suspension was added to each well of 96 well black plates. Before the measurement of calcium influx, the cells were incubated for two days at 37° C. in a 5% CO2 incubator.
For use in calcium influx experiments, each compound was dissolved in dimethyl sulfoxide (DMSO).
To measure an intracellular calcium influx, cells were incubated at 37° C. for 90 min in a medium containing the calcium indicator Fluo-3/AM so as to allow the fluorescent dye to penetrate into the cells. Then, the cells were washed three times with D-PBS (Dulbecco's phosphate buffered saline) containing 10 mM HEPES to remove the fluorescent dye which remained outside. 193 μL aliquot of D-PBS was added to each well, followed by the addition of various concentrations of compounds thereto. In order to measure the antagonistic activity of the compounds, calcium influx was induced by treatment with 1 μM capsaicin. The inhibitory effect of each compound on 1 μM capsaicin-induced intracellular calcium influx according to compound concentration was measured using a fluorescent analyzer and the data thus obtained were analyzed on the basis of the Hill's equation.
In general terms: Calcium flux is commonly read through the fluorescence of an indicator in the cells.

In US9199965B2, “Benzoimidazole derivatives and pharmaceutical composition comprising the same” (Daewoong Co., Ltd., priority 2005, dated 2015) one finds IC50 data, which are given here for 34 molecules.

T1 sequence (Q8NER1 whole entry): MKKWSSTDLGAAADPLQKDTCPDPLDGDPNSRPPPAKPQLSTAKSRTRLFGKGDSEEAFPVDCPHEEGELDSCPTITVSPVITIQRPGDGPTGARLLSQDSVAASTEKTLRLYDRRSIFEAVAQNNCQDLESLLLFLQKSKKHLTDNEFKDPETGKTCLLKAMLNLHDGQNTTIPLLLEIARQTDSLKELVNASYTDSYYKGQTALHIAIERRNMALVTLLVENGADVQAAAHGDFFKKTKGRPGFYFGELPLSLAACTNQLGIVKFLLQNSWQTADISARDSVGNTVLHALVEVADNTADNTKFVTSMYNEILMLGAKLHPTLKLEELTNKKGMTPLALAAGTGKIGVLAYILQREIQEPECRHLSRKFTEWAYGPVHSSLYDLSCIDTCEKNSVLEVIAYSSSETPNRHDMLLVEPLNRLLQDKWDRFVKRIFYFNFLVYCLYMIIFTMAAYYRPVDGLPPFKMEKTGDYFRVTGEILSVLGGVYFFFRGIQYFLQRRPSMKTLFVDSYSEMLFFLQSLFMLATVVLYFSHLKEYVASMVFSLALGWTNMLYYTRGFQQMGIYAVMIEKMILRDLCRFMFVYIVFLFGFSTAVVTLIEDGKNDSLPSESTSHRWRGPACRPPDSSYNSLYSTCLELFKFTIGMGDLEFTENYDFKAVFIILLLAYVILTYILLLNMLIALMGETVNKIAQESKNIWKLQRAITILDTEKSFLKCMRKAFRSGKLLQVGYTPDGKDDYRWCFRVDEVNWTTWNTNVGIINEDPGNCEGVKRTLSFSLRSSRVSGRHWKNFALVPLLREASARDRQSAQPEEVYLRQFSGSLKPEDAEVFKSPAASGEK

Turning to `Clc1cccnc1-c1ccc(-c2nc3ccc(Br)cc3[nH]2)cc1` [Compound 13, 6-bromo-2-(4-(3-chloropyridin-2-yl)phenyl)-1H-benzoimidazole], the IC50 – broadly, the concentration that gives 50% inhibition – is 289 nM. The value for `FC(F)(F)c1cc(Br)c2nc(-c3ccc(-c4ncccc4Cl)cc3)[nH]c2c1` [Compound 14, 4-bromo-2-(4-(3-chloropyridin-2-yl)phenyl)-6-(trifluoromethyl)-1H-benzoimidazole] was 168 nM. Then `FC(F)(F)c1cccnc1-c1ccc(-c2nc3cc(Cl)c(Cl)cc3[nH]2)cc1` [Compound 35, 5,6-dichloro-2-[4-(3-trifluoromethylpyridin-2-yl)phenyl]-1H-benzoimidazole], with 39 nM; and `Fc1ccc2nc(-c3ccc(-c4ncccc4C(F)(F)F)cc3)[nH]c2c1` [Compound 38, 6-fluoro-2-(4-(3-(trifluoromethyl)pyridin-2-yl)phenyl)-1H-benzoimidazole], with 454 nM. Then `FC(F)(F)c1cccnc1-c1ccc(-c2nc3ncc(Br)cc3[nH]2)cc1` [Compound 39], with 19 nM; and `CC(C)(C)c1ccc2nc(-c3ccc(-c4ccccn4)cc3)[nH]c2c1` [Compound 47, 6-tert-butyl-2-(4-pyridin-2-ylphenyl)-1H-benzoimidazole], with 82 nM. As to `FC(F)(F)c1ccc2nc(-c3ccc(-c4ccccn4)cc3)[nH]c2c1` [Compound 48, 6-(trifluoromethyl)-2-(4-(pyridin-2-yl)phenyl)-1H-benzoimidazole], the IC50 turned out to be 160 nM. The value for `FC(F)(F)c1cc(Cl)c2nc(-c3ccc(-c4ccccn4)cc3)[nH]c2c1` [Compound 49, 4-chloro-6-(trifluoromethyl)-2-(4-(pyridin-2-yl)phenyl)-1H-benzoimidazole] was 284 nM. For `Clc1cc2nc(-c3ccc(-c4ccccn4)cc3)[nH]c2cc1Cl` [Compound 50, 5,6-dichloro-2-(4-(pyridin-2-yl)phenyl)-1H-benzoimidazole], the concentration for half-maximal inhibition (IC50) was 292 nM. For the molecule `FC(F)(F)c1cc(C(F)(F)F)c2nc(-c3ccc(-c4ccccn4)cc3)[nH]c2c1` [Compound 51, 4,6-bis(trifluoromethyl)-2-(4-(pyridin-2-yl)phenyl)-1H-benzoimidazole], the IC50 stood at 246 nM. Then `Fc1ccc2nc(-c3ccc(-c4ccccn4)cc3)[nH]c2c1` [Compound 52, 6-fluoro-2-(4-(pyridin-2-yl)phenyl)-1H-benzoimidazole], with 1400 nM; and `Brc1cnc2nc(-c3ccc(-c4ccccn4)cc3)[nH]c2c1` [Compound 53, 6-bromo-2-(4-(pyridin-2-yl)phenyl)-1H-imidazo[4,5-b]pyridine], with 145 nM. Then `FC(F)(F)c1cc(Br)c2nc(-c3ccc(-c4nccc(C(F)(F)F)n4)cc3)[nH]c2c1` [Compound 56, 4-bromo-6-(trifluoromethyl)-2-(4-(4-(trifluoromethyl)pyrimidin-2-yl)phenyl)-1H-benzoimidazole], with 22 nM; and `CC(C)(C)c1ccc2nc(-c3ccc(-c4ncccn4)cc3)[nH]c2c1` [Compound 58, 6-tert-butyl-2-(4-(pyrimidin-2-yl)phenyl)-1H-benzoimidazole], with 145 nM. With `N#Cc1cccnc1-c1ccc(-c2nc3ccc(C(F)(F)F)cc3[nH]2)cc1` [Compound 59, 2-(4-(6-(trifluoromethyl)-1H-benzoimidazole-2-yl)phenyl)pyridin-3-carbonitrile], the half-maximal inhibitory concentration (IC50) came to 296 nM.

As for `CC(C)(C)c1ccc2nc(-c3ccc(-c4ncccc4C#N)cc3)[nH]c2c1` [Compound 60], the half-maximal inhibitory concentration (IC50) stood at 150 nM. For the molecule `CC(C)(C)c1ccc2nc(-c3ccc(-c4ccccn4)cc3F)[nH]c2c1` [Compound 82, 6-tert-butyl-2-(2-fluoro-4-pyridin-2-yl)phenyl-1H-benzoimidazole], the IC50 is 263 nM. Then `FC(F)(F)c1ccc2nc(-c3ccc(-c4ncccc4C(F)(F)F)cc3Cl)[nH]c2c1` [Compound 97, 2-[2-chloro-4-(3-trifluoromethylpyridin-2-yl)phenyl]-6-trifluoromethyl-1H-benzoimidazole], with 644 nM; and `FC(F)(F)c1cc(C(F)(F)F)c2nc(-c3ccc(-c4ncccc4Cl)c4ccccc34)[nH]c2c1` [Compound 106, 2-[4-(3-chloropyridin-2-yl)naphthalen-1-yl]-4,6-bistrifluoromethyl-1H-benzoimidazole], with 275 nM.

In the case of `FC(F)(F)c1ccc2nc(-c3ccc(-c4ncccc4C(F)(F)F)c4ccccc34)[nH]c2c1` [Compound 113, 6-trifluoromethyl-2-[4-(3-trifluoromethylpyridin-2-yl)naphthalen-1-yl]-1H-benzoimidazole], the IC50 is 363 nM. Then `Clc1cc2nc(-c3ccc(-c4ccccn4)c(Cl)c3)[nH]c2cc1Cl` [Compound 129, 5,6-dichloro-2-(3-chloro-4-(pyridin-2-yl)phenyl)-1H-benzoimidazole], with 3960 nM.

On to `Clc1cc(-c2nc3ccc(Br)cc3[nH]2)ccc1-c1ccccn1` [Compound 130, 6-bromo-2-(3-chloro-4-(pyridin-2-yl)phenyl)-1H-benzoimidazole], for which the half-inhibitory concentration (IC50) was 436 nM. Take `FC(F)(F)c1ccc2nc(-c3ccc(-c4ncccc4Cl)cn3)[nH]c2c1` [Compound 136, 3-chloro-6′-(6-trifluoromethyl-1H-benzoimidazole-2-yl)-[2,3′]bipyridine]: the 50% inhibitory concentration (IC50) was 952 nM.

For `Clc1ccc2nc(-c3ccc(-c4ncccc4Cl)cn3)[nH]c2c1` [Compound 137, 3-chloro-6′-(6-chloro-1H-benzoimidazole-2-yl)-[2,3′]bipyridine], the IC50 came out at 569 nM. The value for `FC(F)(F)c1cc(Br)c2nc(-c3ccc(-c4ncccc4Cl)cn3)[nH]c2c1` [Compound 140, 4-bromo-2-(5-(3-chloropyridin-2-yl)pyridin-2-yl)-6-(trifluoromethyl)-1H-benzoimidazole] was 66 nM; that for `Clc1cccnc1-c1ccc(-c2nc3ccc(Br)cc3[nH]2)nc1` [Compound 141, 6-bromo-2-(5-(3-chloropyridin-2-yl)pyridin-2-yl)-1H-benzoimidazole] was 2400 nM. The value for `CC(C)(C)c1ccc2nc(-c3ccc(-c4ncccc4C(F)(F)F)cn3)[nH]c2c1` [Compound 159, 6′-(6-tert-butyl-1H-benzoimidazole-2-yl)-3-trifluoromethyl-[2,3′]bipyridine] was 3950 nM; that for `FC(F)(F)c1cccnc1-c1ccc(-c2nc3ccc(Cl)cc3[nH]2)nc1` [Compound 160, 6′-(6-chloro-1H-benzoimidazole-2-yl)-3-trifluoromethyl-[2,3′]bipyridine] was 258 nM. Then `Fc1ccc2nc(-c3ccc(-c4ncccc4C(F)(F)F)cn3)[nH]c2c1` [Compound 166, 6-fluoro-2-(5-(3-(trifluoromethyl)pyridin-2-yl)pyridin-2-yl)-1H-benzoimidazole], with 3900 nM.

As for `Clc1cc2nc(-c3ccc(-c4ccccn4)cn3)[nH]c2cc1Cl` [Compound 173, 5,6-dichloro-2-(5-(pyridin-2-yl)pyridin-2-yl)-1H-benzoimidazole], the IC50 was found to be 46 nM.

In the case of `CC(C)(C)c1ccc2nc(-c3ccc(-c4cccc5ccccc45)nc3)[nH]c2c1` [Compound 174, 6-tert-butyl-2-(6-naphthalen-1-ylpyridin-3-yl)-1H-benzoimidazole], the IC50 turned out to be 282 nM. For `FC(F)(F)c1ccc2nc(-c3ccc(-c4cccc5ccccc45)nc3)[nH]c2c1` [Compound 176, 6-(trifluoromethyl)-2-(6-(naphthalen-1-yl)pyridin-3-yl)-1H-benzoimidazole], the concentration for half-maximal inhibition (IC50) amounted to 229 nM.

In the case of `Clc1ccc2nc(-c3ccc(-c4cccc5ccccc45)nc3)[nH]c2c1` [Compound 177, 6-chloro-2-(6-(naphthalen-1-yl)pyridin-3-yl)-1H-benzoimidazole], the IC50 amounted to 151 nM. Then `FC(F)(F)c1ccc2nc(-c3cccc(Cn4cc(Cl)cn4)c3)[nH]c2c1` [Compound 195, 2-[3-(4-chloropyrazol-1-ylmethyl)phenyl]-6-trifluoromethyl-1H-benzoimidazole], with 1400 nM.
